Literature values as cited in patent US20240050408A1, “USE OF MGLUR5 ANTAGONISTS FOR TREATING AMPHETAMINE ADDICTION” (NOVARTIS AG, priority 2020, published 2024).

What was measured:
[1] = test system: methamphetamine self-administration behavior; conditions: rat model; Gass et al. 2009; cited from earlier work
[2] = test system: methamphetamine conditioned place preference; conditions: rats; Herrold et al. 2013; cited from earlier work

SMILES	cue- and drug-induced reinstatement of methamphetamine-seeking behavior [1]	cue-induced reinstatement of food-seeking behavior [1]	methamphetamine self-administration behavior [1]	overall responding for food [1]	maintenance of the expression of methamphetamine conditioned place preference [2]
Cc1nc(C#Cc2cccnc2)cs1 [MTEP, 3-[(2-methyl-1,3-thiazol-4-yl)ethynyl]pyridine]	dose dependently prevented	did not alter	dose dependently reduced	without altering	inhibited
Cc1cccc(C#Cc2ccccc2)n1 [MPEP, 2-Methyl-6-(phenylethynyl)-pyridine]	–	–	–	–	inhibited
